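Five concentrations, 48 hours, 96-well plates. GI50 is the concentration that inhibits growth by half. TGI denotes the concentration required for complete inhibition of growth.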
Tests used:
Assay in all cases: NCI tumour cell line growth inhibition, 48 h
SW-620 colon = test system: SW-620 colon
UO-31 renal = test system: UO-31 renal
MALME-3M melanoma = test system: MALME-3M melanoma
SNB-75 CNS = test system: SNB-75 CNS
SK-MEL-28 melanoma = test system: SK-MEL-28 melanoma
NCI-H226 lung = test system: NCI-H226 lung
SK-MEL-5 melanoma = test system: SK-MEL-5 melanoma
SNB-19 CNS = test system: SNB-19 CNS
M14 melanoma = test system: M14 melanoma
HL-60(TB) leukemia = test system: HL-60(TB) leukemia

Compound	GI50 (SW-620 colon)	TGI (SW-620 colon)	GI50 (UO-31 renal)	TGI (UO-31 renal)	GI50 (MALME-3M melanoma)	TGI (MALME-3M melanoma)	GI50 (SNB-75 CNS)	TGI (SNB-75 CNS)	GI50 (SK-MEL-28 melanoma)	TGI (SK-MEL-28 melanoma)	GI50 (NCI-H226 lung)	TGI (NCI-H226 lung)	GI50 (SK-MEL-5 melanoma)	TGI (SK-MEL-5 melanoma)	GI50 (SNB-19 CNS)	TGI (SNB-19 CNS)	GI50 (M14 melanoma)	TGI (M14 melanoma)	GI50 (HL-60(TB) leukemia)	TGI (HL-60(TB) leukemia)
O=C(CC1(O)C(=O)N(Cc2ccccc2)c2ccc(Cl)cc21)c1ccc(C(=O)NCC2CCC3(CC2)OOC2(CCCCC2)OO3)cc1 (stereo not drawn)	2.21 µM	5.88 µM	0.134 µM	0.289 µM	209 nM	0.537 µM	1.35 µM	3.39 µM	8.35 µM	> 100 µM	1.72 µM	9.06 µM	1.89 µM	4.56 µM	5.34 µM	> 100 µM	2.52 µM	17.3 µM		
COc1ccc(/C=C2\CN(C(=O)C(Cl)Cl)C/C(=C\c3ccc(OC)cc3)C2=O)cc1	0.351 µM	1.78 µM	1.33 µM	2.61 µM	1920 nM	4.61 µM					2.47 µM	7.65 µM							0.791 µM	7.52 µM
BrC(Br)=C1C(=C(Br)Br)C(Br)C1Br (stereo not drawn)		1 µM		2.24 µM		1.59 µM		5.62 µM		3.06 µM		0.67 µM		2.04 µM		15.5 µM		0.592 µM		
O=c1c2ccc(S(=O)(=O)c3ccc4c(=O)n5c6ccccc6nc5c5cccc3c45)c3cccc(c32)c2nc3ccccc3n12				> 100 µM		> 100 µM				> 100 µM		> 100 µM		> 100 µM		37.9 µM		> 100 µM		
COc1cc(OC)c(C(=O)c2cccs2)cc1N		> 100 µM		> 100 µM		> 100 µM		> 100 µM		> 100 µM				> 100 µM		> 100 µM		> 100 µM		
CCC[CH2][Sn]([CH2]CCC)([O]c1cccc2cccnc12)[O]c1cccc2cccnc12	0.179 µM	0.429 µM	0.265 µM	0.528 µM			0.156 µM	0.563 µM	0.146 µM	0.332 µM			0.192 µM	0.409 µM	0.312 µM	0.873 µM	0.186 µM	0.369 µM		
O=S(=O)([O-])c1ccc(N=Cc2ccccc2[O-])cc1.O=S(=O)([O-])c1ccc(N=Cc2ccccc2[O-])cc1.[Co+2]	> 100 µM	> 100 µM	69.3 µM	> 100 µM	> 100000 nM	> 100 µM	> 100 µM	> 100 µM	59.5 µM	> 100 µM	> 100 µM	> 100 µM			> 100 µM	> 100 µM	79.6 µM	> 100 µM	40.1 µM	> 100 µM
CCN1CCC(Nc2ccnc3cc(Cl)ccc23)CC1	21.8 µM	> 100 µM	9.06 µM	29 µM	20700 nM	40.4 µM	18.4 µM	74.8 µM	18.1 µM	33.5 µM	39.1 µM	> 100 µM	16 µM	30.2 µM	79.1 µM	> 100 µM	14.4 µM	29.3 µM		
CN1CN(C2OC(CO)C(O)C2O)c2nc(N)[nH]c(=O)c21 (stereo not drawn)		> 100 µM		> 100 µM		> 100 µM		> 100 µM				> 100 µM		> 100 µM		> 100 µM		> 100 µM		> 100 µM
COc1cccc(/C=C/C(=O)c2ccc(SC)cc2)c1OC	18.8 µM	35.7 µM	17 µM	31.1 µM	16700 nM	34.7 µM	14.6 µM	30.7 µM	20 µM	36.7 µM			16.4 µM	30.3 µM	16.2 µM	32 µM	17.2 µM	31.1 µM		
O=c1[nH]c2ccccc2c2nc3ccccc3n12		> 100 µM		> 100 µM		72.7 µM								> 100 µM		> 100 µM		> 100 µM		> 100 µM
COC(=O)C1=C(O)[C@H](C(=O)OC)C2(O)C(C(=O)OC)[C@H](c3ccc(OC(=O)C(C)c4ccccc4)cc3)C[C@@H]1[C@@H]2C(=O)OC (stereo partly drawn)	21 µM	> 50 µM	29.5 µM	> 50 µM			16.6 µM	> 50 µM	26.7 µM	> 50 µM			8.53 µM	23 µM	23.7 µM	> 50 µM	34.9 µM	> 50 µM	43.3 µM	> 50 µM
Oc1ccc(O)c(-c2cn3c(n2)SCC3)c1	3.19 µM	8.17 µM	20.7 µM	> 100 µM							6.85 µM	28.6 µM	16.9 µM	33 µM	21.3 µM	45.4 µM	15.5 µM	31.3 µM		
CO[C@@H]1C=C[C@@]23c4cc5c(cc4CN(C[C@@H]2O)[C@H]3C1)OCO5		> 100 µM		62.2 µM		76 µM		50.6 µM		> 100 µM		> 100 µM				> 100 µM		31.5 µM		39.2 µM
Cc1c(O)c(N=Nc2nc3ccccc3s2)c2ccccc2c1O	25.9 µM	> 50 µM	18.8 µM	> 50 µM									8.85 µM	21.2 µM	28.4 µM	> 50 µM	33.5 µM	> 50 µM	> 50 µM	> 50 µM
O=C1C(Cl)=C(Nc2ccc(Nc3ccccc3)c(NC3=C(Cl)C(=O)c4ccccc4C3=O)c2)C(=O)c2ccccc21			1.35 µM	7.71 µM	2500 nM	5.71 µM	2.3 µM	6.97 µM	32.9 µM	96.5 µM	16.7 µM	35.6 µM	13.1 µM	32 µM	4.34 µM	59.4 µM	4.55 µM	> 100 µM	2.07 µM	4.65 µM
CC(C)N(O)C(=N)c1ccccc1		> 100 µM		> 100 µM				> 100 µM		> 100 µM		> 100 µM		> 100 µM		> 100 µM		> 100 µM		> 100 µM
Cc1nc2c(c(N3CCCc4ccccc43)n1)CCC2	< 0.01 µM	> 100 µM	< 0.01 µM	> 100 µM					11.7 µM	> 100 µM	< 0.01 µM	40.5 µM	< 0.01 µM	0.0233 µM	< 0.01 µM	> 100 µM			< 0.01 µM	

Source: PubChem BioAssay (NCI)
